ChEMBL document CHEMBL1201862, “PubChem BioAssay data set” (2004)
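Compound exposure: 48 hours, 5 concentrations, 96-well plates. The concentration for 50% growth inhibition is given as GI50.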 Calls of active or inactive are those of the source. No stated cut-off is given here; in the data, active = GI50 up to about 1.1 µM and inactive = higher.

Legend:
Assay in all cases: growth of human tumour cells (NCI), 48 h
786-0 = test system: 786-0
A498 = test system: A498
A549 = test system: A549
ACHN = test system: ACHN
BT-549 = test system: BT-549
CAKI-1 = test system: CAKI-1
CCRF-CEM = test system: CCRF-CEM
COLO 205 = test system: COLO 205
DU-145 = test system: DU-145
EKVX = test system: EKVX
HCC 2998 = test system: HCC 2998
HCT-116 = test system: HCT-116
HCT-15 = test system: HCT-15
HL-60 = test system: HL-60
HOP-62 = test system: HOP-62
HOP-92 = test system: HOP-92
HT-29 = test system: HT-29
Hs-578T = test system: Hs-578T
K562 = test system: K562
KM12 = test system: KM12
LOX IMVI = test system: LOX IMVI
M14 = test system: M14
MCF7 = test system: MCF7
MDA-MB-231 = test system: MDA-MB-231
MDA-MB-435 = test system: MDA-MB-435
MDA-N = test system: MDA-N
MOLT-4 = test system: MOLT-4
Malme-3M = test system: Malme-3M
NCI-H226 = test system: NCI-H226
NCI-H23 = test system: NCI-H23
NCI-H460 = test system: NCI-H460
NCI-H522 = test system: NCI-H522
NCI/ADR-RES = test system: NCI/ADR-RES
OVCAR-3 = test system: OVCAR-3
OVCAR-4 = test system: OVCAR-4
OVCAR-5 = test system: OVCAR-5
OVCAR-8 = test system: OVCAR-8
PC-3 = test system: PC-3
RPMI-8226 = test system: RPMI-8226
RXF 393 = test system: RXF 393
SF-268 = test system: SF-268
SF-295 = test system: SF-295
SF-539 = test system: SF-539
SK-MEL-28 = test system: SK-MEL-28
SK-MEL-2 = test system: SK-MEL-2
SK-MEL-5 = test system: SK-MEL-5
SK-OV-3 = test system: SK-OV-3
SN12C = test system: SN12C
SNB-19 = test system: SNB-19
SNB-75 = test system: SNB-75
SR = test system: SR
SW-620 = test system: SW-620
T47D = test system: T47D
TK-10 = test system: TK-10
U-251 = test system: U-251
UACC-257 = test system: UACC-257
UACC-62 = test system: UACC-62
UO-31 = test system: UO-31
IGROV-1 = test system: IGROV-1

## CN(C)CCNc1ccc2ncnc3c2c1C(=O)c1ccccc1-3
786-0
  GI50: 0.215 µM (active)
A498
  GI50: 1.64 µM (inactive)
A549
  GI50: 0.274 µM (active)
ACHN
  GI50: 0.281 µM (active)
BT-549
  GI50: 5.32 µM (inactive)
CAKI-1
  GI50: 0.259 µM (active)
CCRF-CEM
  GI50: 0.143 µM (active)
COLO 205
  GI50: 0.433 µM (active)
DU-145
  GI50: 0.476 µM (active)
EKVX
  GI50: 0.343 µM (active)
HCC 2998
  GI50: 0.348 µM (active)
HCT-116
  GI50: 0.0676 µM (active)
HCT-15
  GI50: 0.323 µM
HL-60
  GI50: 2.58 µM (inactive)
HOP-62
  GI50: 0.242 µM (active)
HOP-92
  GI50: 1.12 µM (active)
HT-29
  GI50: 0.463 µM (active)
Hs-578T
  GI50: 0.989 µM (active)
K562
  GI50: 0.221 µM (active)
KM12
  GI50: 0.393 µM (active)
LOX IMVI
  GI50: 0.24 µM (active)
M14
  GI50: 0.314 µM (active)
MCF7
  GI50: 0.406 µM (active)
MDA-MB-231
  GI50: 0.337 µM (active)
MDA-MB-435
  GI50: 0.535 µM (active)
MDA-N
  GI50: 0.456 µM (active)
MOLT-4
  GI50: 0.0769 µM (active)
Malme-3M
  GI50: 0.166 µM (active)
NCI-H226
  GI50: 0.431 µM (active)
NCI-H23
  GI50: 0.655 µM (active)
NCI-H460
  GI50: 0.443 µM (active)
NCI-H522
  GI50: 0.232 µM (active)
NCI/ADR-RES
  GI50: 0.357 µM (active)
OVCAR-3
  GI50: 0.556 µM (active)
OVCAR-4
  GI50: 0.627 µM (active)
OVCAR-5
  GI50: 0.488 µM (active)
OVCAR-8
  GI50: 0.466 µM (active)
PC-3
  GI50: 0.519 µM (active)
RPMI-8226
  GI50: 0.263 µM (active)
RXF 393
  GI50: 0.444 µM (active)
SF-268
  GI50: 0.513 µM (active)
SF-295
  GI50: 0.174 µM (active)
SF-539
  GI50: 0.667 µM (active)
SK-MEL-28
  GI50: 2.33 µM (inactive)
SK-MEL-2
  GI50: 1.76 µM (inactive)
SK-MEL-5
  GI50: 0.759 µM (active)
SK-OV-3
  GI50: 1.81 µM (inactive)
SN12C
  GI50: 0.332 µM (active)
SNB-19
  GI50: 1.02 µM (active)
SNB-75
  GI50: 0.446 µM (active)
SR
  GI50: 0.0824 µM (active)
SW-620
  GI50: 0.129 µM (active)
T47D
  GI50: 0.619 µM (active)
TK-10
  GI50: 0.175 µM (active)
U-251
  GI50: 0.49 µM (active)
UACC-257
  GI50: 2.09 µM (inactive)
UACC-62
  GI50: 0.757 µM (active)
UO-31
  GI50: 0.468 µM (active)

## CCCCCCN(C(=O)Oc1ccccc1)C(C#N)c1ccccc1 (configuration not stated)
786-0
  GI50: > 100 µM (inactive)
A498
  GI50: > 100 µM (inactive)
A549
  GI50: > 100 µM (inactive)
ACHN
  GI50: > 100 µM (inactive)
BT-549
  GI50: > 100 µM (inactive)
CAKI-1
  GI50: > 100 µM (inactive)
CCRF-CEM
  GI50: > 100 µM (inactive)
COLO 205
  GI50: > 100 µM (inactive)
DU-145
  GI50: > 100 µM (inactive)
EKVX
  GI50: > 100 µM (inactive)
HCC 2998
  GI50: > 100 µM (inactive)
HCT-116
  GI50: > 100 µM (inactive)
HCT-15
  GI50: > 100 µM
HL-60
  GI50: > 100 µM (inactive)
HOP-62
  GI50: > 100 µM (inactive)
HOP-92
  GI50: > 100 µM (inactive)
HT-29
  GI50: > 100 µM (inactive)
Hs-578T
  GI50: > 100 µM (inactive)
IGROV-1
  GI50: > 100 µM (inactive)
K562
  GI50: > 100 µM (inactive)
KM12
  GI50: > 100 µM (inactive)
LOX IMVI
  GI50: > 100 µM (inactive)
M14
  GI50: > 100 µM (inactive)
MCF7
  GI50: > 100 µM (inactive)
MDA-MB-231
  GI50: > 100 µM (inactive)
MDA-MB-435
  GI50: > 100 µM (inactive)
MDA-N
  GI50: > 100 µM (inactive)
MOLT-4
  GI50: > 100 µM (inactive)
Malme-3M
  GI50: > 100 µM (inactive)
NCI-H226
  GI50: > 100 µM (inactive)
NCI-H23
  GI50: > 100 µM (inactive)
NCI-H522
  GI50: > 100 µM (inactive)
NCI/ADR-RES
  GI50: > 100 µM (inactive)
OVCAR-3
  GI50: > 100 µM (inactive)
OVCAR-4
  GI50: > 100 µM (inactive)
OVCAR-5
  GI50: > 100 µM (inactive)
OVCAR-8
  GI50: > 100 µM (inactive)
PC-3
  GI50: > 100 µM (inactive)
RPMI-8226
  GI50: > 100 µM (inactive)
RXF 393
  GI50: > 100 µM (inactive)
SF-268
  GI50: > 100 µM (inactive)
SF-295
  GI50: > 100 µM (inactive)
SF-539
  GI50: > 100 µM (inactive)
SK-MEL-28
  GI50: > 100 µM (inactive)
SK-MEL-2
  GI50: > 100 µM (inactive)
SK-MEL-5
  GI50: > 100 µM (inactive)
SK-OV-3
  GI50: > 100 µM (inactive)
SN12C
  GI50: > 100 µM (inactive)
SNB-19
  GI50: > 100 µM (inactive)
SNB-75
  GI50: > 100 µM (inactive)
SR
  GI50: > 100 µM (inactive)
SW-620
  GI50: > 100 µM (inactive)
T47D
  GI50: > 100 µM (inactive)
TK-10
  GI50: > 100 µM (inactive)
U-251
  GI50: > 100 µM (inactive)
UACC-257
  GI50: > 100 µM (inactive)
UACC-62
  GI50: > 100 µM (inactive)
UO-31
  GI50: > 100 µM (inactive)

## O=C(CC(C(=O)c1ccco1)c1cccs1)c1cccs1 (configuration not stated)
786-0
  GI50: > 100 µM (inactive)
A498
  GI50: 96.2 µM (inactive)
A549
  GI50: 41.7 µM (inactive)
ACHN
  GI50: 58.7 µM (inactive)
BT-549
  GI50: 46.5 µM (inactive)
CAKI-1
  GI50: > 100 µM (inactive)
COLO 205
  GI50: 51.9 µM (inactive)
DU-145
  GI50: > 100 µM (inactive)
EKVX
  GI50: 24.9 µM (inactive)
HCC 2998
  GI50: 49.2 µM (inactive)
HCT-116
  GI50: 32.9 µM (inactive)
HCT-15
  GI50: 50.2 µM
HL-60
  GI50: 27.2 µM (inactive)
HOP-62
  GI50: 87.7 µM (inactive)
HOP-92
  GI50: 59.4 µM (inactive)
HT-29
  GI50: 37.9 µM (inactive)
Hs-578T
  GI50: 49.9 µM (inactive)
IGROV-1
  GI50: 65.6 µM (inactive)
KM12
  GI50: 40.6 µM (inactive)
LOX IMVI
  GI50: 37.3 µM (inactive)
M14
  GI50: 46.6 µM (inactive)
MCF7
  GI50: 46.8 µM (inactive)
MDA-MB-231
  GI50: > 100 µM (inactive)
MDA-MB-435
  GI50: 35.9 µM (inactive)
MDA-N
  GI50: 37.6 µM (inactive)
Malme-3M
  GI50: 96.2 µM (inactive)
NCI-H226
  GI50: > 100 µM (inactive)
NCI-H23
  GI50: 58.5 µM (inactive)
NCI-H460
  GI50: 80.5 µM (inactive)
NCI-H522
  GI50: 41.9 µM (inactive)
NCI/ADR-RES
  GI50: 36.1 µM (inactive)
OVCAR-3
  GI50: 40.7 µM (inactive)
OVCAR-4
  GI50: 36 µM (inactive)
OVCAR-5
  GI50: 61.4 µM (inactive)
OVCAR-8
  GI50: 44.7 µM (inactive)
PC-3
  GI50: 42.5 µM (inactive)
RPMI-8226
  GI50: 55.7 µM (inactive)
RXF 393
  GI50: 51.3 µM (inactive)
SF-268
  GI50: 57.9 µM (inactive)
SF-295
  GI50: 38.8 µM (inactive)
SF-539
  GI50: > 100 µM (inactive)
SK-MEL-28
  GI50: 42.7 µM (inactive)
SK-MEL-2
  GI50: 37.4 µM (inactive)
SK-MEL-5
  GI50: 32.4 µM (inactive)
SK-OV-3
  GI50: 87.1 µM (inactive)
SN12C
  GI50: 66.8 µM (inactive)
SNB-19
  GI50: > 100 µM (inactive)
SNB-75
  GI50: 44.4 µM (inactive)
SR
  GI50: 34.6 µM (inactive)
SW-620
  GI50: 94.8 µM (inactive)
T47D
  GI50: 28.2 µM (inactive)
TK-10
  GI50: > 100 µM (inactive)
U-251
  GI50: 67.5 µM (inactive)
UACC-257
  GI50: 24.8 µM (inactive)
UACC-62
  GI50: 36.3 µM (inactive)
UO-31
  GI50: 30.7 µM (inactive)
